Several values for one entry are separate records, joined by “and”; a condition that tells them apart may be missing. Identical values can stand only once.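 Dose response: 5 concentrations. Exposure: 48 h. Format: 96-well plates. Endpoint: linear interpolation; highest concentration if not reached. The concentration for 50% growth inhibition is given as GI50. At the TGI there is no net growth.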 A value given as a limit tells only on which side of the number the result lay.

The term TGI denotes the concentration giving total growth inhibition. As usually defined, the GI50 is the concentration that inhibits growth by half.

Test systems include SF-268 CNS; NCI/ADR-RES ovarian; MDA-MB-435; SK-MEL-2 melanoma; NCI-H522 lung; SF-539 CNS; SNB-19 CNS; NCI-H226 lung; CAKI-1 renal; HT29 colon.
Holding throughout (assay): DTP human tumour cell line panel, 48 h

As for `CC1OC(OC2C(O[C@H]3CC[C@@]4(C)C(=CC[C@H]5[C@@H]6C[C@@H]7O[C@]8(CC[C@H](C)CN8)[C@@H](C)[C@@H]7[C@@]6(C)CC[C@@H]54)C3)OC(CO)C(O)C2OC2OC(CO)C(O)C(O)C2O)C(O)C(O)C1O` (some centres undefined), the total growth inhibition concentration (TGI) worked out at 33.3 µM in the test on SF-268 CNS; 32.5 µM with NCI/ADR-RES ovarian; 50.7 µM in the test with MDA-MB-435; 32.4 µM in the test on SK-MEL-2 melanoma; 30.3 µM in the test on NCI-H522 lung; 33.8 µM with SF-539 CNS. The TGI came to 35.6 µM in the test with SNB-19 CNS, 38.2 µM in the test with NCI-H226 lung, 34 µM with CAKI-1 renal and 31.6 µM with HT29 colon.

As for `COc1cc(OC)c(/C=C/c2cnc3ccccc3n2)c(OC)c1`, the TGI with SF-268 CNS, with NCI/ADR-RES ovarian, in the test on MDA-MB-435, in the test on SK-MEL-2 melanoma, in the test on NCI-H522 lung and in the test on SF-539 CNS was over 10 µM in each case. Besides, the concentration for total growth inhibition (TGI) with SNB-19 CNS, with NCI-H226 lung, in the test on CAKI-1 renal and with HT29 colon was over 10 µM throughout.

For `CCCCCCCCCCCC1CCCC(C)N1` (centres undefined), the GI50 in the test with SF-268 CNS was 11 µM; in the test with NCI/ADR-RES ovarian it was 11.9 µM; in the test with MDA-MB-435, 5.01 µM; in the test on SK-MEL-2 melanoma, 5.88 µM; in the test with NCI-H522 lung, 7.29 µM; in the test with SF-539 CNS, 12.2 µM. Besides, the GI50 is 11.4 µM in the test on SNB-19 CNS, 16.7 µM in the test with NCI-H226 lung, 4.84 µM in the test on CAKI-1 renal and 2.59 µM in the test on HT29 colon. For the same compound, the TGI with SF-268 CNS was 27.2 µM and 147 µM; in the test with NCI/ADR-RES ovarian, 27.3 µM and 161 µM; with MDA-MB-435 it was 18.2 µM; in the test on NCI-H522 lung it was 19.9 µM and 96.4 µM; in the test with SF-539 CNS, 24.8 µM and 141 µM; with SNB-19 CNS it was 25.3 µM and 155 µM. The TGI in the test with NCI-H226 lung is 36.9 µM and 166 µM; with CAKI-1 renal, 19.5 µM and 116 µM; in the test on HT29 colon it was 8.78 µM and 65.7 µM.

For `COc1ccc(-c2nc3ccccn3c2/C=C/C(=O)c2cc(OC)c(OC)c(OC)c2)cc1`, the GI50 was 4 µM in the test with SF-268 CNS; 3.36 µM in the test with NCI/ADR-RES ovarian; 5.76 µM in the test with MDA-MB-435; 4.95 µM with SK-MEL-2 melanoma; 3.12 µM in the test with NCI-H522 lung; 2.39 µM in the test with SF-539 CNS. Moreover, the GI50 with SNB-19 CNS was 25.2 µM; with NCI-H226 lung it was 24.1 µM; in the test on CAKI-1 renal, 8.33 µM; in the test with HT29 colon, 4.8 µM. Moreover, the TGI with SF-268 CNS was over 100 µM; with NCI/ADR-RES ovarian, 29.4 µM; with MDA-MB-435, 27.6 µM; in the test with SK-MEL-2 melanoma, over 100 µM; in the test on NCI-H522 lung, 23.4 µM; in the test with SF-539 CNS, 11.5 µM. The TGI was over 100 µM in the test on SNB-19 CNS, over 100 µM in the test on NCI-H226 lung, over 100 µM with CAKI-1 renal and 32.4 µM in the test with HT29 colon.

`COc1ccc2c(c1)n([O-])c1ccccc1[n+]2=O`: the GI50 in the test with SF-268 CNS is 31.5 µM and 15.2 µM; with MDA-MB-435, 65.4 µM and 22.2 µM; in the test with SF-539 CNS, 46.5 µM and 17.4 µM; with SNB-19 CNS, 51.6 µM and 20 µM; in the test on CAKI-1 renal, 25.3 µM and 8 µM. The TGI is > 100 µM and 53.7 µM in the test on SF-268 CNS; > 100 µM and 97.9 µM in the test on NCI/ADR-RES ovarian; > 100 µM and 46.4 µM in the test on MDA-MB-435; 74.7 µM and 54.5 µM in the test on SK-MEL-2 melanoma; 53.4 µM and 32.1 µM in the test with NCI-H522 lung; > 100 µM and 45.9 µM with SF-539 CNS. Besides, the TGI in the test with SNB-19 CNS is > 100 µM and 89.6 µM; in the test with NCI-H226 lung, 91.4 µM and 91.6 µM; with CAKI-1 renal it was > 100 µM and 27 µM; in the test with HT29 colon, over 100 µM.

In the case of `COc1cc2c(cc1Nc1nc(Nc3ccsc3C(N)=O)c3cc[nH]c3n1)N(C(=O)CN(C)C)CCC2(C)C`, the GI50 with SF-268 CNS was 2.6 µM; in the test on NCI/ADR-RES ovarian it was 2.01 µM; with MDA-MB-435 it was 0.299 µM; with SK-MEL-2 melanoma, 0.515 µM; with NCI-H522 lung, 0.764 µM; with SF-539 CNS, 3.35 µM. Also, the GI50 with SNB-19 CNS was 3.62 µM; with NCI-H226 lung it was 0.763 µM; in the test on CAKI-1 renal, 1.37 µM; with HT29 colon it was under 0.0025 µM. Also, the TGI amounted to 5.75 µM in the test with SF-268 CNS; 8.49 µM in the test on NCI/ADR-RES ovarian; 2.49 µM in the test on MDA-MB-435; 3.63 µM in the test with SK-MEL-2 melanoma; 3.76 µM in the test on NCI-H522 lung; 7.05 µM in the test on SF-539 CNS. Further, the total growth inhibition concentration (TGI) in the test with SNB-19 CNS is 7.1 µM; in the test on NCI-H226 lung, 4.92 µM; in the test on CAKI-1 renal it was 6.69 µM; in the test on HT29 colon, 2.53 µM.

For the compound `CN1CCN(c2ccc3nc(-c4ccc5nc(-c6ccc(OCCC(C)(C)C)cc6)[nH]c5c4)[nH]c3c2)CC1`, the GI50 was 6.58 µM in the test with SF-268 CNS; 35.7 µM with NCI/ADR-RES ovarian; 1.97 µM in the test on MDA-MB-435; 19.7 µM with SK-MEL-2 melanoma; 13.6 µM in the test on NCI-H522 lung; 11.5 µM in the test with SF-539 CNS. For the same compound, the GI50 is 2.15 µM in the test with SNB-19 CNS, 23.8 µM in the test on NCI-H226 lung, 4.15 µM in the test with CAKI-1 renal and 1.78 µM with HT29 colon. Besides, the total growth inhibition concentration (TGI) with SF-268 CNS was 25.4 µM; in the test with NCI/ADR-RES ovarian, over 100 µM; in the test on MDA-MB-435 it was 3.99 µM; in the test with SK-MEL-2 melanoma, 38.5 µM; in the test on NCI-H522 lung it was 38.1 µM; in the test on SF-539 CNS, 26.1 µM. The total growth inhibition concentration (TGI) was 4.09 µM with SNB-19 CNS, 52.2 µM in the test on NCI-H226 lung, 15.7 µM in the test on CAKI-1 renal and 4.07 µM in the test on HT29 colon.

With `COc1ccc(OC)c(/C=C(/C)[N+](=O)[O-])c1`, the GI50 in the test with SF-268 CNS was 2.12 µM; in the test on NCI/ADR-RES ovarian it was 3.22 µM; in the test with MDA-MB-435, 2.29 µM; in the test with SK-MEL-2 melanoma it was 2.16 µM; with NCI-H522 lung it was 1.93 µM; in the test on SF-539 CNS it was 2.29 µM. Also, the GI50 is 9.52 µM in the test on SNB-19 CNS, 13.8 µM in the test with NCI-H226 lung, 1.29 µM in the test with CAKI-1 renal and 2.56 µM in the test with HT29 colon. The concentration for total growth inhibition (TGI) in the test on SF-268 CNS was determined as 5.22 µM; with NCI/ADR-RES ovarian, 11.5 µM; in the test on MDA-MB-435, 6.8 µM; in the test on SK-MEL-2 melanoma, 4.41 µM; in the test with NCI-H522 lung, 3.64 µM; in the test with SF-539 CNS it was 5.04 µM. Further, the concentration for total growth inhibition (TGI) with SNB-19 CNS stood at 23.3 µM; in the test with NCI-H226 lung, 27.9 µM; with CAKI-1 renal, 2.77 µM; in the test with HT29 colon it was 5.2 µM.

Source of the values: PubChem BioAssay (NCI).
